The target in one assay is T1, human mPGES-1 (Homo sapiens, UniProt O14684).
T1 construct: made in house; host or cells: COS-1 cells (transient transfection; microsomal fraction used as enzyme)
T1 sequence (O14684 1-152): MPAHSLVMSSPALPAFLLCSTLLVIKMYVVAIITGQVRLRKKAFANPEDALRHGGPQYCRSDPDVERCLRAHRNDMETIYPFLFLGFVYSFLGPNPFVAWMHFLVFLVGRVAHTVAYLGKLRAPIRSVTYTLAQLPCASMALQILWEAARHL
As to the kind of experiment: Test for mPGES-1 inhibitory activity (microsomal enzyme, PGE2 EIA). Type of assay: biochemical. The settings on record: microsomes from COS-1 cells transfected with human mPGES-1 cDNA; substrate PGH2 1 μM; 4° C., 4 minutes; PGE2 measured by EIA; read-out: h mPGES1 IC50. In a few lines: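 Enzyme source was microsomes from COS-1 cells transiently expressing human mPGES-1, in sodium phosphate pH 7.2 with 2.5 mM GSH, 1 mM EDTA and 2% DMSO final. After a 15 min preincubation with compound at 4 °C, 1 μM PGH2 (final) reacted for 4 min at 4 °C.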
Take `CCc1nc(-c2c(C(F)(F)F)ccc(CNC(=O)[C@H]3CC[C@H](OCc4ccc(F)c(F)c4)CC3)c2F)[nH]c(=O)c1F` [Example 133, trans-4-[(3,4-difluorobenzyl)oxy]-N-[3-(4-ethyl-5-fluoro-6-oxo-1,6-dihydropyrimidin-2-yl)-2-fluoro-4-(trifluoromethyl)benzyl]cyclohexane-1-carboxamide]: the IC50 is 27 nM.
In the case of `O=c1cc(C(F)(F)F)nc(-c2c(C(F)(F)F)ccc(CNC(=O)[C@H]3C[C@H](OCc4ccccc4)C3)c2F)[nH]1` [Example 134, trans-3-(benzyloxy)-N-{2-fluoro-3-[6-oxo-4-(trifluoromethyl)-1,6-dihydropyrimidin-2-yl]-4-(trifluoromethyl)benzyl}cyclobutane-1-carboxamide], the 50% inhibitory concentration (IC50) was under 10 nM.
With `O=c1cc(C(F)(F)F)nc(-c2c(C(F)(F)F)ccc(CNC(=O)[C@H]3C[C@@H](OCc4ccccc4)C3)c2F)[nH]1` [Example 135, cis-3-(benzyloxy)-N-{2-fluoro-3-[6-oxo-4-(trifluoromethyl)-1,6-dihydropyrimidin-2-yl]-4-(trifluoromethyl)benzyl}cyclobutane-1-carboxamide], the IC50 was determined as 6.4 nM.
As to `O=c1cc(C(F)(F)F)nc(-c2c(C(F)(F)F)ccc(CNC(=O)[C@H]3C[C@H](OCc4ccccc4Cl)C3)c2F)[nH]1` [Example 136, trans-3-[(2-chlorobenzyl)oxy]-N-{2-fluoro-3-[6-oxo-4-(trifluoromethyl)-1,6-dihydropyrimidin-2-yl]-4-(trifluoromethyl)benzyl}cyclobutane-1-carboxamide], the concentration for half-maximal inhibition (IC50) was found to be 2 nM.
In the case of `O=c1cc(C(F)(F)F)nc(-c2c(C(F)(F)F)ccc(CNC(=O)[C@H]3C[C@@H](OCc4ccccc4Cl)C3)c2F)[nH]1` [Example 137, cis-3-[(2-chlorobenzyl)oxy]-N-{2-fluoro-3-[6-oxo-4-(trifluoromethyl)-1,6-dihydropyrimidin-2-yl]-4-(trifluoromethyl)benzyl}cyclobutane-1-carboxamide], the IC50 is 2.9 nM.
With `O=c1cc(C(F)(F)F)nc(-c2c(C(F)(F)F)ccc(CNC(=O)[C@H]3C[C@H](OCc4cccc(Cl)c4)C3)c2F)[nH]1` [Example 138, trans-3-[(3-chlorobenzyl)oxy]-N-{2-fluoro-3-[6-oxo-4-(trifluoromethyl)-1,6-dihydropyrimidin-2-yl]-4-(trifluoromethyl)benzyl}cyclobutane-1-carboxamide], the IC50 is under 1 nM.
The same measure, in the same setting: the same measure for `O=c1cc(C(F)(F)F)nc(-c2c(C(F)(F)F)ccc(CNC(=O)[C@H]3C[C@H](OCc4ccc(Cl)cc4)C3)c2F)[nH]1` [Example 140, trans-3-[(4-chlorobenzyl)oxy]-N-{2-fluoro-3-[6-oxo-4-(trifluoromethyl)-1,6-dihydropyrimidin-2-yl]-4-(trifluoromethyl)benzyl}cyclobutane-1-carboxamide]: 1 nM; for `O=c1cc(C(F)(F)F)nc(-c2c(C(F)(F)F)ccc(CNC(=O)[C@H]3C[C@@H](OCc4ccc(Cl)cc4)C3)c2F)[nH]1` [Example 141, cis-3-[(4-chlorobenzyl)oxy]-N-{2-fluoro-3-[6-oxo-4-(trifluoromethyl)-1,6-dihydropyrimidin-2-yl]-4-(trifluoromethyl)benzyl}cyclobutane-1-carboxamide]: under 1 nM.
Take `O=c1cc(C(F)(F)F)nc(-c2c(C(F)(F)F)ccc(CNC(=O)[C@H]3C[C@H](OCc4ccccc4C(F)(F)F)C3)c2F)[nH]1` [Example 142, trans-N-{2-fluoro-3-[6-oxo-4-(trifluoromethyl)-1,6-dihydropyrimidin-2-yl]-4-(trifluoromethyl)benzyl}-3-{[2-(trifluoromethyl)benzyl]oxy}cyclobutane-1-carboxamide]: the 50% inhibitory concentration (IC50) was under 1 nM.
`O=c1cc(C(F)(F)F)nc(-c2c(C(F)(F)F)ccc(CNC(=O)[C@H]3C[C@@H](OCc4ccccc4C(F)(F)F)C3)c2F)[nH]1` [Example 143, cis-N-{2-fluoro-3-[6-oxo-4-(trifluoromethyl)-1,6-dihydropyrimidin-2-yl]-4-(trifluoromethyl)benzyl}-3-{[2-(trifluoromethyl)benzyl]oxy}cyclobutane-1-carboxamide]: the half-inhibitory concentration (IC50) came out at 28 nM.
Same read-out and setting: the same measure for `O=c1cc(C(F)(F)F)nc(-c2c(C(F)(F)F)ccc(CNC(=O)[C@H]3C[C@H](OCc4cccc(C(F)(F)F)c4)C3)c2F)[nH]1` [Example 144, trans-N-{2-fluoro-3-[6-oxo-4-(trifluoromethyl)-1,6-dihydropyrimidin-2-yl]-4-(trifluoromethyl)benzyl}-3-{[3-(trifluoromethyl)benzyl]oxy}cyclobutane-1-carboxamide]: under 1 nM.

Staying with this assay, now noted: microsomes of COS-1 cells transfected with human mPGES-1 cDNA; PGH2 1 μM; 4° C., 4 minutes; PGE2 by EIA; read-out: h mPGES1 IC50.
Regarding `O=c1cc(C(F)(F)F)nc(-c2c(C(F)(F)F)ccc(CNC(=O)[C@H]3C[C@@H](OCc4cccc(C(F)(F)F)c4)C3)c2F)[nH]1` [Example 145, cis-N-{2-fluoro-3-[6-oxo-4-(trifluoromethyl)-1,6-dihydropyrimidin-2-yl]-4-(trifluoromethyl)benzyl}-3-{[3-(trifluoromethyl)benzyl]oxy}cyclobutane-1-carboxamide], the half-maximal inhibitory concentration (IC50) amounted to 98 nM.
Still for that read-out and setting: the same measure for `O=c1cc(C(F)(F)F)nc(-c2c(C(F)(F)F)ccc(CNC(=O)[C@H]3C[C@H](OCc4ccc(C(F)(F)F)cc4)C3)c2F)[nH]1` [Example 146, trans-N-{2-fluoro-3-[6-oxo-4-(trifluoromethyl)-1,6-dihydropyrimidin-2-yl]-4-(trifluoromethyl)benzyl}-3-{[4-(trifluoromethyl)benzyl]oxy}cyclobutane-1-carboxamide]: 2.1 nM; for `O=c1cc(C(F)(F)F)nc(-c2c(C(F)(F)F)ccc(CNC(=O)[C@H]3C[C@@H](OCc4ccc(C(F)(F)F)cc4)C3)c2F)[nH]1` [Example 147, cis-N-{2-fluoro-3-[6-oxo-4-(trifluoromethyl)-1,6-dihydropyrimidin-2-yl]-4-(trifluoromethyl)benzyl}-3-{[4-(trifluoromethyl)benzyl]oxy}cyclobutane-1-carboxamide]: under 1 nM.
Still for that read-out and setting: the same measure for `O=c1cc(C(F)(F)F)nc(-c2c(C(F)(F)F)ccc(CNC(=O)[C@H]3C[C@H](OCc4ccc(F)cc4F)C3)c2F)[nH]1` [Example 148, trans-3-[(2,4-difluorobenzyl)oxy]-N-{2-fluoro-3-[6-oxo-4-(trifluoromethyl)-1,6-dihydropyrimidin-2-yl]-4-(trifluoromethyl)benzyl}cyclobutane-1-carboxamide]: under 1 nM; for `O=c1cc(C(F)(F)F)nc(-c2c(C(F)(F)F)ccc(CNC(=O)[C@H]3C[C@H](OCc4ccc(Cl)cc4F)C3)c2F)[nH]1` [Example 149, trans-3-[(4-chloro-2-fluorobenzyl)oxy]-N-{2-fluoro-3-[6-oxo-4-(trifluoromethyl)-1,6-dihydropyrimidin-2-yl]-4-(trifluoromethyl)benzyl}cyclobutane-1-carboxamide]: under 1 nM.
Same read-out and setting: the same measure for `O=c1cc(C(F)(F)F)nc(-c2c(C(F)(F)F)ccc(CNC(=O)[C@H]3C[C@H](OCc4ccc(F)c(F)c4)C3)c2F)[nH]1` [Example 150, trans-3-[(3,4-difluorobenzyl)oxy]-N-{2-fluoro-3-[6-oxo-4-(trifluoromethyl)-1,6-dihydropyrimidin-2-yl]-4-(trifluoromethyl)benzyl}cyclobutane-1-carboxamide]: under 1 nM; for `O=c1cc(C(F)(F)F)nc(-c2c(C(F)(F)F)ccc(CNC(=O)[C@H]3C[C@H](OCc4cc(F)cc(F)c4)C3)c2F)[nH]1` [Example 151, trans-3-[(3,5-difluorobenzyl)oxy]-N-{2-fluoro-3-[6-oxo-4-(trifluoromethyl)-1,6-dihydropyrimidin-2-yl]-4-(trifluoromethyl)benzyl}cyclobutane-1-carboxamide]: under 1 nM.
As for `O=c1cc(C(F)(F)F)nc(-c2c(C(F)(F)F)ccc(CNC(=O)[C@H]3C[C@H](OCc4cccc(F)c4)C3)c2F)[nH]1` [Example 152, trans-N-{2-fluoro-3-[6-oxo-4-(trifluoromethyl)-1,6-dihydropyrimidin-2-yl]-4-(trifluoromethyl)benzyl}-3-[(3-fluorobenzyl)oxy]cyclobutane-1-carboxamide], the IC50 was under 1 nM.
Same read-out and setting: under `O=c1cc(C(F)(F)F)nc(-c2c(C(F)(F)F)ccc(CNC(=O)[C@H]3C[C@H](OCc4cccc(F)c4F)C3)c2F)[nH]1` [Example 153, trans-3-[(2,3-difluorobenzyl)oxy]-N-{2-fluoro-3-[6-oxo-4-(trifluoromethyl)-1,6-dihydropyrimidin-2-yl]-4-(trifluoromethyl)benzyl}cyclobutane-1-carboxamide] stands under 1 nM.
The same measure, in the same setting: the same measure for `O=c1cc(C(F)(F)F)nc(-c2c(C(F)(F)F)ccc(CNC(=O)[C@H]3C[C@H](OCc4ccc(F)cc4Cl)C3)c2F)[nH]1` [Example 154, trans-3-[(2-chloro-4-fluorobenzyl)oxy]-N-{2-fluoro-3-[6-oxo-4-(trifluoromethyl)-1,6-dihydropyrimidin-2-yl]-4-(trifluoromethyl)benzyl}cyclobutane-1-carboxamide]: under 1 nM; for `O=c1cc(C(F)(F)F)nc(-c2c(C(F)(F)F)ccc(CNC(=O)[C@H]3C[C@H](OCc4cccc(Cl)c4F)C3)c2F)[nH]1` [Example 155, trans-3-[(3-chloro-2-fluorobenzyl)oxy]-N-{2-fluoro-3-[6-oxo-4-(trifluoromethyl)-1,6-dihydropyrimidin-2-yl]-4-(trifluoromethyl)benzyl}cyclobutane-1-carboxamide]: under 1 nM.

In general, IC50 refers to the midpoint of a concentration-inhibition curve.
